Source: PubChem BioAssay (NCI)
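Where inhibition never reached the appropriate level, the endpoint shown equals the highest concentration tested. Otherwise, values were interpolated linearly from a five-concentration, 48-hour dose response in 96-well plates. The concentration for 50% growth inhibition is given as GI50. TGI: concentration producing complete growth inhibition.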

Key:
Assay in all cases: inhibition of tumour cell growth, NCI panel, 48 h
SF-539 CNS = tested on: SF-539 CNS
SW-620 colon = tested on: SW-620 colon
MCF7 breast = tested on: MCF7 breast
MALME-3M melanoma = tested on: MALME-3M melanoma
PC-3 prostate = tested on: PC-3 prostate
HCC-2998 colon = tested on: HCC-2998 colon
SK-MEL-5 melanoma = tested on: SK-MEL-5 melanoma
T-47D breast = tested on: T-47D breast
HOP-92 NSCLC = tested on: HOP-92 NSCLC
CAKI-1 renal = tested on: CAKI-1 renal
MDA-MB-231 breast = tested on: MDA-MB-231 breast
786-0 renal = tested on: 786-0 renal
SR leukemia = tested on: SR leukemia
DU-145 prostate = tested on: DU-145 prostate
BT-549 breast = tested on: BT-549 breast
HCT-15 colon = tested on: HCT-15 colon
SF-295 CNS = tested on: SF-295 CNS
SF-268 CNS = tested on: SF-268 CNS
MDA-MB-435 = tested on: MDA-MB-435
RXF 393 renal = tested on: RXF 393 renal
HOP-62 NSCLC = tested on: HOP-62 NSCLC
M14 melanoma = tested on: M14 melanoma
NCI-H226 lung = tested on: NCI-H226 lung
RPMI-8226 leukemia = tested on: RPMI-8226 leukemia
SN12C renal = tested on: SN12C renal
A498 renal = tested on: A498 renal

How did the GI50 (SF-539 CNS) turn out when `COc1cc(/C=C\c2cc(OC)c(OC)c(OC)c2)cc(N/C=C\C(=O)c2c[nH]c3ccccc23)c1OC` was run?
The GI50 was 1.7 µM.

And the TGI (SF-539 CNS)?
Its TGI is 3.19 µM.

And the GI50 (SW-620 colon)?
Its GI50 is 1.63 µM.

What about the TGI (SW-620 colon) of the same compound?
The TGI was 3.31 µM.

And the GI50 (MCF7 breast)?
The GI50 was 0.72 µM.

And the TGI (MCF7 breast)?
The TGI was 3.15 µM.

And the GI50 (MALME-3M melanoma)?
The GI50 was 1.27 µM.

What about the TGI (MALME-3M melanoma) of the same compound?
Its TGI is 3.18 µM.

What about the GI50 (PC-3 prostate) of the same compound?
The GI50 was 3.44 µM.

What about the TGI (PC-3 prostate) of the same compound?
Its TGI is 18.6 µM.

And the GI50 (HCC-2998 colon)?
Its GI50 is 3.34 µM.

What about the TGI (HCC-2998 colon) of the same compound?
The TGI was 10.5 µM.

And the GI50 (SK-MEL-5 melanoma)?
Its GI50 is 3.14 µM.

And the TGI (SK-MEL-5 melanoma)?
Its TGI is 12.6 µM.

And the GI50 (T-47D breast)?
Its GI50 is 1.55 µM.

And the TGI (T-47D breast)?
The TGI was 4.51 µM.

And the GI50 (HOP-92 NSCLC)?
Its GI50 is 1.5 µM.

What about the TGI (HOP-92 NSCLC) of the same compound?
The TGI was 4.5 µM.

And the GI50 (CAKI-1 renal)?
The GI50 was 1.58 µM.

And the TGI (CAKI-1 renal)?
The TGI was 2.95 µM.

And the GI50 (MDA-MB-231 breast)?
Its GI50 is 1.73 µM.

And the TGI (MDA-MB-231 breast)?
The TGI was 4.11 µM.

And the GI50 (786-0 renal)?
The GI50 was 2.04 µM.

And the TGI (786-0 renal)?
Its TGI is 4.14 µM.

And the GI50 (SR leukemia)?
The GI50 was 0.469 µM.

What about the TGI (SR leukemia) of the same compound?
Its TGI is 3.38 µM.

And the GI50 (DU-145 prostate)?
Its GI50 is 2.06 µM.

And the TGI (DU-145 prostate)?
Its TGI is 4.08 µM.

What about the GI50 (BT-549 breast) of the same compound?
The GI50 was 1.64 µM.

And the TGI (BT-549 breast)?
The TGI was 3.38 µM.

What about the GI50 (HCT-15 colon) of the same compound?
Its GI50 is 2.32 µM.

What about the TGI (HCT-15 colon) of the same compound?
Its TGI is 5.63 µM.

And the GI50 (SF-295 CNS)?
Its GI50 is 7.94 µM.

What about the TGI (SF-295 CNS) of the same compound?
Its TGI is 22.9 µM.

What about the GI50 (SF-268 CNS) of the same compound?
The GI50 was 3.57 µM.

And the TGI (SF-268 CNS)?
Its TGI is 15.6 µM.

And the GI50 (MDA-MB-435)?
The GI50 was 2.43 µM.

What about the TGI (MDA-MB-435) of the same compound?
The TGI was 8.04 µM.

And the GI50 (RXF 393 renal)?
The GI50 was 1.69 µM.

And the TGI (RXF 393 renal)?
The TGI was 3.38 µM.

What about the GI50 (HOP-62 NSCLC) of the same compound?
Its GI50 is 11.6 µM.

What about the TGI (HOP-62 NSCLC) of the same compound?
Its TGI is 28.1 µM.

And the GI50 (M14 melanoma)?
The GI50 was 2.87 µM.

And the TGI (M14 melanoma)?
Its TGI is 12.6 µM.

And the GI50 (NCI-H226 lung)?
The GI50 was 7.28 µM.

What about the TGI (NCI-H226 lung) of the same compound?
Its TGI is 27.7 µM.

And the GI50 (RPMI-8226 leukemia)?
Its GI50 is 0.627 µM.

And the TGI (RPMI-8226 leukemia)?
The TGI was 2.93 µM.

What about the GI50 (SN12C renal) of the same compound?
Its GI50 is 2.44 µM.

What about the TGI (SN12C renal) of the same compound?
The TGI was 7.13 µM.

And the GI50 (A498 renal)?
The GI50 was 1.32 µM.

What about the TGI (A498 renal) of the same compound?
The TGI was 12 µM.
